Results as given in patent US20060052376A1, “Carboxamides” (Merck Patent GmbH, priority 2002, published 2006).

What was measured:
FXa = FXa (Homo sapiens, UniProt P00742); assay: Factor Xa inhibition (FXa-IC50); type: biochemical
Text: The inhibition of factor Xa by the compounds according to the invention and the measurement of the anticoagulant and antithrombotic activity can be determined by conventional in-vitro or in-vivo methods. A suitable method is described, for example, by J. Hauptmann et al. in Thrombosis and Haemostasis 1990, 63, 220-223.
The inhibition of factor Xa can be measured, for example by the method of T. Hara et al. in Thromb. Haemostas. 1994, 71, 314-319.

TF/FVIIa = TF/FVIIa (Homo sapiens, UniProt P08709); assay: TF/FVIIa inhibition (TF/FVIIa-IC50); type: biochemical
TF/FVIIa, sequence (P08709 213-466 limits assumed): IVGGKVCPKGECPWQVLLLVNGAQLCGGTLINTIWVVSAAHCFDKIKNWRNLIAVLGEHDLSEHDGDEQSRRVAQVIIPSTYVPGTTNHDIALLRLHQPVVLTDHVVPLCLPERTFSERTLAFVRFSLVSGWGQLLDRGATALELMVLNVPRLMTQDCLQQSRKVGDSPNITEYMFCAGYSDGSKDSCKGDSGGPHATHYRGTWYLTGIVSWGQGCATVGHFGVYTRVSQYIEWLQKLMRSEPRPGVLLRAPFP
TF/FVIIa, sequence (P08709 61-212 partner limits assumed): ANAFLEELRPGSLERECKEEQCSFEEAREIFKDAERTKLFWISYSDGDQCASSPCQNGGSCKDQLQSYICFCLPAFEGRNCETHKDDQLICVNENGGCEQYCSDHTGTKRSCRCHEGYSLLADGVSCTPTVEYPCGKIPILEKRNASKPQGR
TF/FVIIa, sequence (P13726 33-295 partner): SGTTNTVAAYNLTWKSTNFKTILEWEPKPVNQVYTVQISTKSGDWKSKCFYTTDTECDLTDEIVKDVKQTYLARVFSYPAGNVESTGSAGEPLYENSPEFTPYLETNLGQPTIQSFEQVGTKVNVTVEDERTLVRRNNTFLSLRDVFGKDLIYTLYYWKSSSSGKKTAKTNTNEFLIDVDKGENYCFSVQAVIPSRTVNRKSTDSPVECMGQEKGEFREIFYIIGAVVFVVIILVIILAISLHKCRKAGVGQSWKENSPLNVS
Text: Coagulation factor VIIa initiates the extrinsic part of the coagulation cascade after binding to tissue factor and contributes to the activation of factor X to give factor Xa. Inhibition of factor Vila thus prevents the formation of factor Xa and thus subsequent thrombin formation. The inhibition of factor Vila by the compounds according to the invention and the measurement of the anticoagulant and antithrombotic activity can be determined by conventional in-vitro or in-vivo methods. A conventional method for the measurement of the inhibition of factor VIIa is described, for example, by H. F. Ronning et al. in Thrombosis Research 1996, 84, 73-81.

FXa, sequence (P00742 235-488 limits assumed): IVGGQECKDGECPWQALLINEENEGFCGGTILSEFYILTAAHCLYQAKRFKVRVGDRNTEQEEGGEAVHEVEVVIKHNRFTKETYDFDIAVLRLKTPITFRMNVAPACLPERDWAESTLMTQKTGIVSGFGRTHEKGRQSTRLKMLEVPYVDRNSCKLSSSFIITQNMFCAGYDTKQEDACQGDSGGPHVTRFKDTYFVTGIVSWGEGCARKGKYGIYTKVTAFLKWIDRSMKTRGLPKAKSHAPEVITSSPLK
FXa, sequence (P00742 41-179 partner limits assumed): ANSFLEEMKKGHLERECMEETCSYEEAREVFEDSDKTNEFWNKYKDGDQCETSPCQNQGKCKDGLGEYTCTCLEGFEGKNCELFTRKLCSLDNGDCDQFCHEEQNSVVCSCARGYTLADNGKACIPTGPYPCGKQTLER

SMILES | IC50 (FXa) [µM] | IC50 (TF/FVIIa) [µM]
Cc1cc(NC(=O)[C@@H](CC(C)C)NC(=O)c2ccc(Cl)s2)ccc1N1CCOCC1=O [Compound 1A, (R)-2-[(5-chlorothiophene-2-carbonyl)amino]-N-[3-methyl-4-(3-oxomorpholin-4-yl)phenyl]-4-methylvaleramide] | 0.0073 | 0.0069
CC(C)C[C@@H](NC(=O)c1ccc(Cl)s1)C(=O)Nc1ccc(-n2ccncc2=O)cc1 [Compound 2A, (R)-2-[(5-chlorothiophene-2-carbonyl)amino]-N-[4-(2-oxo-2H-pyrazin-1-yl)phenyl]4-methylvaleramide] | 0.039 | –
CC(C)C[C@@H](NC(=O)c1ccc(Cl)s1)C(=O)Nc1ccc(N2CCCCC2=N)cc1 [Compound 4A, (R)-2-[(5-chlorothiophene-2-carbonyl)amino]-N-[4-(2-iminopiperidin-1-yl)phenyl]-4-methylvaleramide] | 0.025 | –
CC(C)C[C@H](NC(=O)c1ccc(Cl)s1)C(=O)Nc1ccc(N2CCCCC2=N)cc1 [Compound 4B, (S)-2-[(5-chlorothiophene-2-carbonyl)amino]-N-[4-(2-iminopiperidin-1-yl)phenyl]-4-methylvaleramide] | 0.26 | –
